Assay results taken from US20250304620A1, “ANTIMICROBIAL PEPTIDE AND APPLICATION THEREOF” (priority 2023, published 2025).
In brackets after ≈: the same amount, converted by molar mass. Marks after values point to notes of the source that are not given here. Non-standard residues stand in square brackets, D forms with d. Residues, ends and D or L forms follow the SMILES beside them. d2Nal = N[C@H](Cc1ccc2ccccc2c1)C(=O)O; dNle = CCCC[C@@H](N)C(=O)O

What was measured:
[1] = system: Staphylococcus aureus (NRS 384); test: microbe, parasite or virus in culture; type: cell-based; conditions: NRS 384
Summary of the method: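 CLSI broth microdilution with serial twofold dilutions gave MICs against S. aureus NRS 384, with 5 parallel replicates. Levofloxacin and the AMP Cbf-K16 served as positive controls.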

[2] = system: Pseudomonas aeruginosa ATCC 27853; test: Injectable formulations on mice infected with peritonitis; type: in vivo, ICR mice; conditions: twice a day for 3 days; for Number of mice that died on each day after infection: day 1 / Number of mice that died on each day after infection: day 2 / Number of mice that died on each day after infection: day 3 / Number of mice that died on each day after infection: day 4 / Number of mice that died on each day after infection: day 5 / Average survival times (Days): n = 10; for Average survival times (Days): observed for 14 d
Protocol: Both female and male ICR mice were used in the test, half of the female and male mice were taken and randomly assigned into groups, with 10 mice in each group, and kept in separate cages. The mice were divided into a blank control group, a negative control group, a positive control Levofloxacin group, and AMPs LV-1 to LV-30 groups. A bacterial suspension of Pseudomonas aeruginosa ATCC 27853 was prepared, a concentration of the suspension was adjusted 1×10^9 CFU/mL for subsequent use. Except for the blank control group, all other mice were injected with the bacterial suspension (0.2 mL, 1×10^9 CFU/mL), into abdominal cavity of the mice, to establish a model. After the model was successfully established, the mice were given drug immediately according to their body weights. Except for the blank control group and the negative control group, the mice in all other groups were administered the corresponding injectable formulations via tail vein, twice a day for 3 consecutive days. The mice were then observed for 14 d. The death of mice in each group was observed, and survival time of the mice was recorded. Results of the effect of the injectable formulations of AMPs LV-1 to LV-30 on the survival time of mice infected with Pseudomonas aeruginosa are shown in Table 10.

[3] = system: Candida glabrata ATCC 15126; type: cell-based
Source text: (§1) According to the Standards of Clinical and Laboratory Standards Institute (CLSI) of the USA for antimicrobial drug susceptibility test operation standards, the micronutrient serial twofold dilution method was used further determine MICs of 30 AMPs (S/N: LV-1 to LV-30) 10 clinically common sensitive strains and 6 fungi in clinical practice. The experiment was repeated 5 times in parallel.

[4] = system: Salmonella typhimurium ATCC 14028; type: cell-based
Source text: as §1

Candida krusei ATCC 6258 = type: cell-based
Source text: as §1

[5] = system: Staphylococcus aureus ATCC 25923; type: cell-based
Source text: as §1

[6] = system: Klebsiella pneumoniae ATCC 700603; type: cell-based
Source text: as §1

[7] = system: Bacillus subtilis ATCC 6633; type: cell-based
Source text: as §1

[8] = system: Candida albicans ATCC MYA-2876; type: cell-based
Source text: as §1

[9] = system: Trichophyton ATCC MYA-4438; type: cell-based
Source text: as §1

[10] = system: Corynebacterium ATCC 7715; type: cell-based
Source text: as §1

Enterococcus ATCC 29212 = type: cell-based
Source text: as §1

[11] = system: Serratia marcescens ATCC 29021; type: cell-based
Source text: as §1

[12] = system: Pseudomonas aeruginosa ATCC 27853; type: cell-based
Source text: as §1

[13] = system: Candida tropicalis ATCC 750; type: cell-based
Source text: as §1

[14] = system: Escherichia coli ATCC 25922; type: cell-based
Source text: as §1

Candida utilis ATCC 9950 = type: cell-based
Source text: as §1

[15] = system: Staphylococcus aureus (NRS 384); conditions: NRS 384, 3 h
Protocol: Trypsin (250 U/mg, pH=8.0) and AMPs (LV-1 to LV-30) were mixed in a ratio of 1:10 (w/w) and added to a reaction buffer (0.2 M sodium phosphate, 1 mM CaCl2), pH 7.5), and then incubated at 37° C. for 3 h.

[16] = system: Escherichia coli ATCC 25922; test: Oral formulations on mice with systemic bacterial infection; type: in vivo, ICR mice; conditions: three times a day for 7 days; for Number of mice that died on each day after infection: day 4 / Number of mice that died on each day after infection: day 5 / Number of mice that died on each day after infection: day 6 / Number of mice that died on each day after infection: day 7 / Number of mice that died on each day after infection: day 8 / Average survival times (Days): n = 10; for Average survival times (Days): observed for 14 d
Protocol: Both female and male ICR mice were used in the test, half of the female and male mice were taken and randomly assigned into groups, with 10 mice in each group, and kept in separate cages. The mice were divided into a blank control group, a negative control group, a positive control Levofloxacin group, and AMPs LV-1 to LV-30 groups. An Escherichia coli ATCC 25922 bacterial suspension was prepared, a concentration of the suspension was adjusted 1×10^7 CFU/mL for subsequent use. Except for the blank control group, all other mice were injected with the Escherichia coli suspension (0.2 mL, 1×10^7 CFU/mL), into abdominal cavity of the mice, to establish a model. After the model was successfully established, the mice were given drug immediately according to their body weights. Except for the blank control group and the negative control group, the mice in all other groups were gavaged with different compounds, three times a day for 7 consecutive days. The mice were then observed for 14 d. The death of mice in each group was observed, and survival time of the mice was recorded. Results of the effect of the oral formulations of AMPs LV-1 to LV-30 on the survival time of mice infected with Escherichia coli are shown in Table 11.

CCCC[C@@H](NC(=O)[C@@H](CCCCN)NC(=O)[C@@H](CCCNC(=N)N)NC(C)=O)C(=O)N[C@H](CCCC)C(=O)N[C@H](Cc1ccc2ccccc2c1)C(=O)N[C@H](CCCNC(=N)N)C(=O)N[C@H](CCCC)C(=O)N[C@H](CCCCN)C(=O)N[C@H](Cc1ccc2ccccc2c1)C(=O)N[C@H](CCCNC(=N)N)C(=O)N[C@H](CCCCN)C(N)=O [LV-12] (Ac-[dR][dK][dNle][dNle][d2Nal][dR][dNle][dK][d2Nal][dR][dK]-NH2)
MIC against Staphylococcus aureus (NRS 384) [1]: 1 µg/mL (≈ 0.607 µM)
Number of mice that died on each day after infection: day 1 ([2]; 0.2 mg/kg via tail vein): 2 Mouse
Number of mice that died on each day after infection: day 2 ([2]; 0.2 mg/kg via tail vein): 1 Mouse
Number of mice that died on each day after infection: day 3 ([2]; 0.2 mg/kg via tail vein): 0 Mouse
Number of mice that died on each day after infection: day 4 ([2]; 0.2 mg/kg via tail vein): 2 Mouse
Number of mice that died on each day after infection: day 5 ([2]; 0.2 mg/kg via tail vein): 1 Mouse
Average survival times (Days) ([2]; 0.2 mg/kg via tail vein): 7.3** Days
Number of mice that died on each day after infection: day 1 ([2]; 1 mg/kg via tail vein): 0 Mouse
Number of mice that died on each day after infection: day 2 ([2]; 1 mg/kg via tail vein): 0 Mouse
Number of mice that died on each day after infection: day 3 ([2]; 1 mg/kg via tail vein): 2 Mouse
Number of mice that died on each day after infection: day 4 ([2]; 1 mg/kg via tail vein): 0 Mouse
Number of mice that died on each day after infection: day 5 ([2]; 1 mg/kg via tail vein): 1 Mouse
Average survival times (Days) ([2]; 1 mg/kg via tail vein): 10.9**** Days
Number of mice that died on each day after infection: day 1 ([2]; 5 mg/kg via tail vein): 0 Mouse
Number of mice that died on each day after infection: day 2 ([2]; 5 mg/kg via tail vein): 1 Mouse
Number of mice that died on each day after infection: day 3 ([2]; 5 mg/kg via tail vein): 2 Mouse
Number of mice that died on each day after infection: day 4 ([2]; 5 mg/kg via tail vein): 0 Mouse
Number of mice that died on each day after infection: day 5 ([2]; 5 mg/kg via tail vein): 1 Mouse
Average survival times (Days) ([2]; 5 mg/kg via tail vein): 9.7*** Days
survival time of mice infected with Pseudomonas aeruginosa ([2]; tail vein, observed 14 d): superior to those of the Levofloxacin group
MIC Candida glabrata ATCC 15126 [3]: 4 µg/mL (≈ 2.43 µM)
MIC Salmonella typhimurium ATCC 14028 [4]: 4 µg/mL (≈ 2.43 µM)
MIC Candida krusei ATCC 6258 (Candida krusei ATCC 6258): 4 µg/mL (≈ 2.43 µM)
MIC Staphylococcus aureus ATCC 25923 [5]: 1 µg/mL (≈ 0.607 µM)
MIC Klebsiella pneumoniae ATCC 700603 [6]: 2 µg/mL (≈ 1.21 µM)
MIC Bacillus subtilis ATCC 6633 [7]: 8 µg/mL (≈ 4.86 µM)
MIC Candida albicans ATCC MYA-2876 [8]: 8 µg/mL (≈ 4.86 µM)
MIC Trichophyton ATCC MYA-4438 [9]: 16 µg/mL (≈ 9.72 µM)
MIC Corynebacterium ATCC 7715 [10]: 2 µg/mL (≈ 1.21 µM)
MIC Enterococcus ATCC 29212 (Enterococcus ATCC 29212): 4 µg/mL (≈ 2.43 µM)
MIC Serratia marcescens ATCC 29021 [11]: 2 µg/mL (≈ 1.21 µM)
MIC Pseudomonas aeruginosa ATCC 27853 [12]: 1 µg/mL (≈ 0.607 µM)
MIC Candida tropicalis ATCC 750 [13]: 8 µg/mL (≈ 4.86 µM)
MIC Escherichia coli ATCC 25922 [14]: 1 µg/mL (≈ 0.607 µM)
MIC Candida utilis ATCC 9950 (Candida utilis ATCC 9950): 16 µg/mL (≈ 9.72 µM)
Trypsin MIC [15]: 1 µg/mL
Number of mice that died on each day after infection: day 4 ([16]; 0.2 mg/kg gavage): 1 Mouse
Number of mice that died on each day after infection: day 5 ([16]; 0.2 mg/kg gavage): 2 Mouse
Number of mice that died on each day after infection: day 6 ([16]; 0.2 mg/kg gavage): 2 Mouse
Number of mice that died on each day after infection: day 7 ([16]; 0.2 mg/kg gavage): 1 Mouse
Number of mice that died on each day after infection: day 8 ([16]; 0.2 mg/kg gavage): 0 Mouse
Average survival times (Days) ([16]; 0.2 mg/kg gavage): 8.9** Days
Number of mice that died on each day after infection: day 4 ([16]; 1 mg/kg gavage): 0 Mouse
Number of mice that died on each day after infection: day 5 ([16]; 1 mg/kg gavage): 1 Mouse
Number of mice that died on each day after infection: day 6 ([16]; 1 mg/kg gavage): 0 Mouse
Number of mice that died on each day after infection: day 7 ([16]; 1 mg/kg gavage): 2 Mouse
Number of mice that died on each day after infection: day 8 ([16]; 1 mg/kg gavage): 1 Mouse
Average survival times (Days) ([16]; 1 mg/kg gavage): 11.1**** Days
Number of mice that died on each day after infection: day 4 ([16]; 5 mg/kg gavage): 0 Mouse
Number of mice that died on each day after infection: day 5 ([16]; 5 mg/kg gavage): 2 Mouse
Number of mice that died on each day after infection: day 6 ([16]; 5 mg/kg gavage): 1 Mouse
Number of mice that died on each day after infection: day 7 ([16]; 5 mg/kg gavage): 1 Mouse
Number of mice that died on each day after infection: day 8 ([16]; 5 mg/kg gavage): 0 Mouse
Average survival times (Days) ([16]; 5 mg/kg gavage): 10.7*** Days
survival time of mice infected with Escherichia coli ([16]; gavage, observed 14 d): superior to those of the Levofloxacin group
